Here are results for five compounds from ChEMBL document CHEMBL1255229, “Novel antimicrobial peptides that exhibit activity against select agents and other drug resistant bacteria” (2010).

Common to all, as to assay type: functional
Assay [1] relates to Acinetobacter baumannii. Description: Antimicrobial activity against Acinetobacter baumannii ATCC 19606 after 24 hrs. The settings on record: ATCC 19606 = CIP 70.34 = JCM 6841, 24 h.
The test system of assay [2] is Acinetobacter baumannii. As to the kind of experiment: Antimicrobial activity against Acinetobacter baumannii WRAIR after 24 hrs.
Another assay deals with Staphylococcus aureus. As to the kind of experiment: Antimicrobial activity against methicillin-resistant Staphylococcus aureus ATCC 33591 after 24 hrs. The settings on record: ATCC 33591, 24 h.
The test system of the next assay is Yersinia pestis. Description: Antimicrobial activity against Yersinia pestis CO92 after 24 hrs. The settings on record: CO92, 24 h.
The test system of a further assay is Brucella melitensis. As to the kind of experiment: Antimicrobial activity against Brucella melitensis 16 M after 24 hrs.
The test system of another assay is Brucella abortus. Description: Antimicrobial activity against Brucella abortus 2308 after 24 hrs. The note with it: Brucella abortus, 2308, 24 h.
The test system of another assay is Brucella suis. As to the kind of experiment: Antimicrobial activity against Brucella suis ATCC 23445 after 24 hrs. The settings on record: ATCC 23445, 24 h.
The next assay relates to Bacillus anthracis. As to the kind of experiment: Antimicrobial activity against Bacillus anthracis Ames after 24 hrs.
The test system of the next assay is Francisella tularensis. As to the kind of experiment: Antimicrobial activity against Francisella tularensis SCHU-S4 after 24 hrs. The settings on record: SCHU-S4, 24 h.
Another assay has as its system Burkholderia mallei. Description: Antimicrobial activity against Burkholderia mallei ATCC 23444 after 24 hrs. The note with it: ATCC 23444, 24 h.
For assay [3], the system named is Burkholderia pseudomallei. As to the kind of experiment: Antimicrobial activity against Burkholderia pseudomallei BURK003(1026b) after 24 hrs.

Structures are written as SMILES. In brackets after ≈: the same amount, converted by molar mass. Starred links: 1 amine or outer side, 2 acyl side, 3 side chain; linkers in the order of their positions; H or OH if unused. Non-standard residues stand in square brackets, D forms with d. Residues, ends and D or L forms follow the SMILES beside them. X1 = O=C([C@@H]1CN([*:1])C2CCCCC21)[*:2]; Tic = O=C(O)[C@@H]1Cc2ccccc2CN1; Orn = NCCC[C@H](N)C(=O)O; Ahx = NCCCCCC(=O)O; GABA = NCCCC(=O)O

As to `CC(=O)NCC(=O)N[C@@H](Cc1ccccc1)C(=O)N1Cc2ccccc2C[C@H]1C(=O)N1C[C@@H](C(=O)NCC(=O)N[C@@H](CCCCN)C(=O)N2Cc3ccccc3C[C@H]2C(=O)N2C[C@@H](C(=O)NCC(=O)N[C@@H](Cc3ccccc3)C(=O)N3Cc4ccccc4C[C@H]3C(=O)N3C[C@@H](C(=O)NCC(=O)N[C@@H](CCCCN)C(=O)N4Cc5ccccc5C[C@H]4C(=O)N[C@@H](CCCCN)C(=O)N[C@@H](CCCCN)C(=O)N[C@@H](CCCCN)C(N)=O)C4CCCCC43)C3CCCCC32)C2CCCCC21` (stereo not given in full) (Ac-GF[Tic][X1]GK[Tic][X1]GF[Tic][X1]GK[Tic]KKK-NH2), the MIC in the assay on Acinetobacter baumannii [1] came to 6.7 µM (≈ 15.5 µg/mL); against Acinetobacter baumannii [2], 3.4 µM (≈ 7.86 µg/mL); in the assay with Staphylococcus aureus it was 54 µM (≈ 125 µg/mL); in the assay with Yersinia pestis, 27 µM (≈ 62.4 µg/mL); against Brucella melitensis, 54 µM (≈ 125 µg/mL); in the assay on Brucella abortus, 27 µM (≈ 62.4 µg/mL). The MIC against Brucella suis was over 216 µM; against Bacillus anthracis, 27 µM (≈ 62.4 µg/mL); in the assay on Francisella tularensis, 0.02 µM (≈ 0.0463 µg/mL); in the assay with Burkholderia mallei it was 0.02 µM (≈ 0.0463 µg/mL); in assay [3], 0.02 µM (≈ 0.0463 µg/mL).

Turning to `CC(=O)NCC(=O)N[C@@H](Cc1ccccc1)C(=O)N1Cc2ccccc2C[C@H]1C(=O)N1C[C@@H](C(=O)NCC(=O)N[C@@H](CCCN)C(=O)N2Cc3ccccc3C[C@H]2C(=O)N2C[C@@H](C(=O)NCC(=O)N[C@@H](Cc3ccccc3)C(=O)N3Cc4ccccc4C[C@H]3C(=O)N3C[C@@H](C(=O)NCC(=O)N[C@@H](CCCN)C(=O)N4Cc5ccccc5C[C@H]4C(=O)N[C@@H](CCCN)C(=O)N[C@@H](CCCN)C(=O)N[C@@H](CCCN)C(=O)N[C@@H](CCCN)C(N)=O)C4CCCCC43)C3CCCCC32)C2CCCCC21` (stereo not given in full) (Ac-GF[Tic][X1]G[Orn][Tic][X1]GF[Tic][X1]G[Orn][Tic][Orn][Orn][Orn][Orn]-NH2), the MIC in the assay with Acinetobacter baumannii [1] is 6.6 µM (≈ 15.6 µg/mL); against Acinetobacter baumannii [2], 6.6 µM (≈ 15.6 µg/mL); in the assay on Staphylococcus aureus it was 53 µM (≈ 125 µg/mL); with Yersinia pestis, 26.5 µM (≈ 62.5 µg/mL); with Brucella melitensis, 106 µM (≈ 250 µg/mL); with Brucella abortus, 106 µM (≈ 250 µg/mL). Also, the MIC against Brucella suis turned out to be 106 µM (≈ 250 µg/mL); in the assay on Bacillus anthracis it was 0.82 µM (≈ 1.93 µg/mL); in the assay on Francisella tularensis, 106 µM (≈ 250 µg/mL); with Burkholderia mallei it was 212 µM (≈ 500 µg/mL); in assay [3], 212 µM (≈ 500 µg/mL).

With `CC(=O)NCCCC(=O)N[C@@H](Cc1ccccc1)C(=O)N1Cc2ccccc2C[C@H]1C(=O)N1C[C@@H](C(=O)NCCCC(=O)N[C@@H](CCCCN)C(=O)N2Cc3ccccc3C[C@H]2C(=O)N2C[C@@H](C(=O)NCCCC(=O)N[C@@H](Cc3ccccc3)C(=O)N3Cc4ccccc4C[C@H]3C(=O)N3C[C@@H](C(=O)NCCCC(=O)N[C@@H](CCCCN)C(=O)N4Cc5ccccc5C[C@H]4C(=O)N[C@@H](CCCCN)C(=O)N[C@@H](CCCCN)C(=O)N[C@@H](CCCCN)C(=O)N[C@@H](CCCCN)C(N)=O)C4CCCCC43)C3CCCCC32)C2CCCCC21` (stereo not given in full) (Ac-[GABA]F[Tic][X1][GABA]K[Tic][X1][GABA]F[Tic][X1][GABA]K[Tic]KKKK-NH2), the MIC against Acinetobacter baumannii [1] is 3.1 µM (≈ 7.92 µg/mL); against Acinetobacter baumannii [2] it was 3.1 µM (≈ 7.92 µg/mL); against Staphylococcus aureus, 196 µM (≈ 500 µg/mL); in the assay with Yersinia pestis, 196 µM (≈ 500 µg/mL); against Brucella melitensis, 196 µM (≈ 500 µg/mL); in the assay on Brucella abortus, 196 µM (≈ 500 µg/mL). For the same compound, the MIC in the assay with Brucella suis is 196 µM (≈ 500 µg/mL); with Bacillus anthracis, 12.5 µM (≈ 31.9 µg/mL); in the assay on Francisella tularensis, 196 µM (≈ 500 µg/mL); against Burkholderia mallei, 196 µM (≈ 500 µg/mL); in [3], 196 µM (≈ 500 µg/mL).

Regarding `CC(=O)NCC(=O)N[C@@H](Cc1ccccc1)C(=O)N1Cc2ccccc2C[C@H]1C(=O)N1C[C@@H](C(=O)NCC(=O)N[C@@H](CCCCN)C(=O)N2Cc3ccccc3C[C@H]2C(=O)N2C[C@@H](C(=O)NCC(=O)N[C@@H](Cc3ccccc3)C(=O)N3Cc4ccccc4C[C@H]3C(=O)N3C[C@@H](C(=O)NCC(=O)N[C@@H](CCCCN)C(=O)N4Cc5ccccc5C[C@H]4C(=O)N[C@@H](CCCN)C(=O)N[C@@H](CCCN)C(=O)N[C@@H](CCCN)C(=O)N[C@@H](CCCN)C(N)=O)C4CCCCC43)C3CCCCC32)C2CCCCC21` (stereo not given in full) (Ac-GF[Tic][X1]GK[Tic][X1]GF[Tic][X1]GK[Tic][Orn][Orn][Orn][Orn]-NH2), the MIC in the assay with Acinetobacter baumannii [1] turned out to be 6.5 µM (≈ 15.5 µg/mL); against Acinetobacter baumannii [2], 6.5 µM (≈ 15.5 µg/mL); with Staphylococcus aureus it was 52.4 µM (≈ 125 µg/mL); in the assay on Yersinia pestis it was 26.2 µM (≈ 62.5 µg/mL); with Brucella melitensis, 104 µM (≈ 248 µg/mL); against Brucella abortus, 209 µM (≈ 498 µg/mL). Besides, the minimal inhibitory concentration (MIC) turned out to be 13 µM (≈ 31 µg/mL) with Brucella suis; 0.81 µM (≈ 1.93 µg/mL) in the assay with Bacillus anthracis; 105 µM (≈ 250 µg/mL) against Francisella tularensis; 209 µM (≈ 498 µg/mL) against Burkholderia mallei; 209 µM (≈ 498 µg/mL) in [3].

Take `CC(=O)NCC(=O)N[C@@H](Cc1ccccc1)C(=O)N1Cc2ccccc2C[C@H]1C(=O)N1C[C@@H](C(=O)NCC(=O)N[C@@H](CCCCN)C(=O)N2Cc3ccccc3C[C@H]2C(=O)N2C[C@@H](C(=O)NCC(=O)N[C@@H](Cc3ccccc3)C(=O)N3Cc4ccccc4C[C@H]3C(=O)N3C[C@@H](C(=O)NCC(=O)N[C@@H](CCCCN)C(=O)N4Cc5ccccc5C[C@H]4C(=O)NCCCCCC(=O)N[C@@H](CCCCN)C(=O)N[C@@H](CCCCN)C(=O)N[C@@H](CCCCN)C(=O)N[C@@H](CCCCN)C(N)=O)C4CCCCC43)C3CCCCC32)C2CCCCC21` (stereo not given in full) (Ac-GF[Tic][X1]GK[Tic][X1]GF[Tic][X1]GK[Tic][Ahx]KKKK-NH2): the MIC is 3 µM (≈ 7.66 µg/mL) with Acinetobacter baumannii [1]; 6.1 µM (≈ 15.6 µg/mL) with Acinetobacter baumannii [2]; 196 µM (≈ 501 µg/mL) with Staphylococcus aureus; 48.9 µM (≈ 125 µg/mL) with Yersinia pestis; 196 µM (≈ 501 µg/mL) in the assay with Brucella melitensis; 196 µM (≈ 501 µg/mL) in the assay with Brucella abortus. Moreover, the MIC against Brucella suis turned out to be 196 µM (≈ 501 µg/mL); in the assay on Bacillus anthracis, 48.9 µM (≈ 125 µg/mL); against Francisella tularensis, 196 µM (≈ 501 µg/mL); against Burkholderia mallei, 196 µM (≈ 501 µg/mL); in assay [3] it was 196 µM (≈ 501 µg/mL).

Broadly, the MIC is the lowest concentration that inhibits growth of the organism. The low end stands for a more susceptible organism, the high end for a less susceptible organism.
